The values below come from US9315517B2, “Imidazol-piperidinyl derivatives as modulators of kinase activity” (Merck Patent GmbH, priority 2012, dated 2016).

By pIC50 is commonly meant −log10 of the IC50, conventionally taken in molar units.

pIC50: −log10 of the molar value. Where only a bound is given, the exact number is not on record here.

For experiment [1], the target named is T1, His-AKT (Full Length) (Homo sapiens, UniProt P31749).
T1 construct: 0.1 ng/μl His-AKT (Full Length); His; purchased Invitrogen P2999
The experiment can be described thus: AKT enzyme assay. Particulars: enzyme inhibition; 160 uM ATP, 90 min at 25° C., Caliper mobility shift. Format: biochemical. On the procedure: (§1) The IC50 values reported for the compounds in the Experimental section were derived from the following protocol for the p70S6K and AKT enzyme assays.
A TTP Mosquito liquid handling instrument was used to place 125 nl of the appropriate concentration of inhibitor in 100% DMSO (for a dose response curve calculation) into each well of a 384-well plate. To this reaction components were added to a final volume of 12.5 μl: • 0.1 ng/μl His-AKT (Full Length), (Invitrogen, Part # P2999, Lot # 641228C). • 160 uM ATP (Fluke, 02055) • 1 mM DTT (Sigma, D0632) • 1 mM MgCl2 (Sigma, M1028) • 1 μM substrate peptide (sequence FITC-AHA-GRPRTSSFAEG-NH2), synthesized by Tufts Peptide Synthesis service. • 100 mM HEPES pH 7.5 (Calbiochem, 391338) • 0.015% Brij-35 (Sigma, B4184)
The reaction was incubated for 90 min at 25° C., and then stopped by the addition of 70 μl of Stop buffer (100 mM HEPES pH 7.5, 0.015% Brij-35, 10 mM EDTA (Sigma, E7889)).
The plate was read on a Caliper LC 3000 in an Off-Chip mobility shift assay format, using the following parameters for a 12-sipper chip: screening pressure −2.3 psi, upstream voltage −500, and downstream voltage −3000. These conditions caused unphosphorylated substrate and phosphorylated product peptide to resolve as separate peaks allowing direct measurement of percentage of conversion of substrate to product. The percent conversion was plotted against concentration of inhibitor to produce a sigmoidal dose response curve, from which an IC50 was calculated.

For experiment [2], the target named is T2, P70S6K (T412E mutant, Millipore) (Homo sapiens, UniProt P23443, T412E).
T2 construct: purchased Millipore
Put plainly: P70S6K enzyme assay. Format: biochemical. Particulars: enzyme inhibition; 24 μM ATP, 90 min at 25° C., Caliper mobility shift. On the procedure:
as §1
P70S6K inhibitor compounds were diluted and plated in 96 well plates. A reaction mixture including the following components was then added to the compound plate to initiate the enzyme reaction; P70S6K (3 nM, T412E mutant, Millipore) was mixed with 24 μM ATP in an assay buffer containing 100 mM Hepes (pH 7.5), 5 mM MgCl2, 1 mM DTT, 0.015% Brij and 1 μM of the substrate peptide FITC-AHA-AKRRRLSSLRA-OH (derived from the S6 ribosomal protein sequence, FITC=fluorescein isothiocyanate, AHA=6-aminohexanoic acid). The reaction was incubated for 90 min at 25° C., before the addition of 10 mM EDTA to stop the reaction. The proportion of substrate and product (phosphorylated) peptide was analysed on a Caliper Life Sciences Lab Chip 3000, using a pressure of −1.4 psi, and upstream and downstream voltages of −3000 and −700 respectively. Product peaks were resolved before substrate peaks on the resulting chromatograms.

T1 sequence (P31749 whole entry): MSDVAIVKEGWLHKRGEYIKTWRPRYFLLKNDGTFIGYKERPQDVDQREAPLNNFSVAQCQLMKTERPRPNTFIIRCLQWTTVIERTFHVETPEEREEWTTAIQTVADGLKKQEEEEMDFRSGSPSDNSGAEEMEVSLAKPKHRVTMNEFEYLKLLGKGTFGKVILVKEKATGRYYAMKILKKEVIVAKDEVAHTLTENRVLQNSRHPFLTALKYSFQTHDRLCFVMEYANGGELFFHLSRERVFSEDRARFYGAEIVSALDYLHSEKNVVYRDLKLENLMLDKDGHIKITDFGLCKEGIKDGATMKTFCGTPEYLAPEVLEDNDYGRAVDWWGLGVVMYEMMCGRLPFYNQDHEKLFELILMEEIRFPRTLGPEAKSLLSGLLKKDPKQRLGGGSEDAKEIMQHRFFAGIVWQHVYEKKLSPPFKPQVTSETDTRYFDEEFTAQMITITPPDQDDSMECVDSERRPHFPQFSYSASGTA
T2 sequence (P23443 whole entry T412E): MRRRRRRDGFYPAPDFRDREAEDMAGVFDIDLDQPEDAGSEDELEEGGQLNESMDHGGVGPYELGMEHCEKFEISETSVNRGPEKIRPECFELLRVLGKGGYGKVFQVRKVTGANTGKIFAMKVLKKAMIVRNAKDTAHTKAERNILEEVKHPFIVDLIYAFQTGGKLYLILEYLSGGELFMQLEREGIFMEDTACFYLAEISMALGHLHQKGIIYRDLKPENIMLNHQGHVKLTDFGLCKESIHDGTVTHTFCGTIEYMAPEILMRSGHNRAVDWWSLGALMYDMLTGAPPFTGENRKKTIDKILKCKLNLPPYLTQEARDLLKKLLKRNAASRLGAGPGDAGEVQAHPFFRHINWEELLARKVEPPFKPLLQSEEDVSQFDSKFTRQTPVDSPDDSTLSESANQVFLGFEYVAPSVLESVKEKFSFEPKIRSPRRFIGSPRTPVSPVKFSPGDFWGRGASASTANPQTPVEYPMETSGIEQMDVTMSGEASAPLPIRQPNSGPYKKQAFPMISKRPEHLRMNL

With `FC(F)(F)c1cc(-c2cn(CCN3CCC3)c(C3CCN(c4ncnc5c4CCC5)CC3)n2)ccn1` [Compound A23, 4-{4-[1-(2-Azetidin-1-yl-ethyl)-4-(2-trifluoromethyl-pyridin-4-yl)-1H-imidazol-2-yl]-piperidin-1-yl}-6,7-dihydro-5H-cyclopentapyrimidine], the pIC50 in experiment [1] is 7.00 to 7.59; in experiment [2], more than 7.60.
The matching figures for `CN(C)CCn1cc(-c2ccc(F)c(Cl)c2)nc1C1CCN(c2ncnc3c2CCCN3)CC1` [Compound A35, (2-{4-(3-Chloro-4-fluoro-phenyl)-2-[1-(5,6,7,8-tetrahydro-pyrido[2,3-d]pyrimidin-4-yl)-piperidin-4-yl]-imidazol-1-yl}-ethyl)-dimethylamine]: more than 7.60 and more than 7.60.
The matching figures for `CN(C)CCn1cc(-c2ccc(F)c(C(F)(F)F)c2)nc1C1CCN(c2ncnc3c2CCC3)CC1` [Compound A14, {2-[2-[1-(6,7-Dihydro-5H-cyclopentapyrimidin-4-yl)-piperidin-4-yl]-4-(4-fluoro-3-trifluoromethyl-phenyl)-imidazol-1-yl]-ethyl}-dimethylamine]: 7.00 to 7.59 and more than 7.60.
The matching figures for `Fc1ccc(-c2cn(CCN3CCC3)c(C3CCN(c4ncnc5c4CCC5)CC3)n2)cc1C(F)(F)F` [Compound A20, 4-{4-[1-(2-Azetidin-1-yl-ethyl)-4-(4-fluoro-3-trifluoromethyl-phenyl)-1H-imidazol-2-yl]-piperidin-1-yl}-6,7-dihydro-5H-cyclopentapyrimidine]: more than 7.60 and more than 7.60.
Turning to `COc1cc(-c2cn(CCN3CCC3)c(C3CCN(c4ncnc5c4CCC5)CC3)n2)ccc1F` [Compound A22, 4-{4-[1-(2-Azetidin-1-yl-ethyl)-4-(4-fluoro-3-methoxy-phenyl)-1H-imidazol-2-yl]-piperidin-1-yl}-6,7-dihydro-5H-cyclopentapyrimidine], the pIC50 in experiment [1] and in experiment [2] was more than 7.60 throughout.
As to `Cc1cc(-c2cn(CCN(C)C)c(C3CCN(c4ncnc5c4OCCN5)CC3)n2)ccc1F` [Compound A7, {2-[2-[1-(7,8-Dihydro-6H-pyrimido[5,4-b][1,4]oxazin-4-yl)-piperidin-4-yl]-4-(4-fluoro-3-methyl-phenyl)-imidazol-1-yl]-ethyl}-dimethylamine], the pIC50 in experiment [1] was 7.00 to 7.59; in experiment [2] it was more than 7.60.
On to `Cc1cc(-c2cn(CCN3CCC3)c(C3CCN(c4ncnc5c4CCN5)CC3)n2)ccc1F` [Compound A29, 4-{4-[1-(2-Azetidin-1-yl-ethyl)-4-(4-fluoro-3-methyl-phenyl)-1H-imidazol-2-yl]-piperidin-1-yl}-6,7-dihydro-5H-pyrrolo[2,3-d]pyrimidine], for which the pIC50 in experiment [1] and in experiment [2] was more than 7.60 in each case.
On to `CN(C)CCn1cc(-c2ccc(F)c(Cl)c2)nc1C1CCN(c2ncnc3c2CCC3)CC1` [Compound A17, (2-{4-(3-Chloro-4-fluoro-phenyl)-2-[1-(6,7-dihydro-5H-cyclopentapyrimidin-4-yl)-piperidin-4-yl]-imidazol-1-yl}-ethyl)-dimethylamine], for which the pIC50 is 7.00 to 7.59 in experiment [1] and more than 7.60 in experiment [2].
The matching figures for `O=C1CNc2ncnc(N3CCC(c4nc(-c5ccc(F)c(F)c5)cn4CCN4CCCC4)CC3)c2N1` [Compound A56, 4-{4-[4-(3,4-DifluoroPhenyl)-1-(2-pyrrolidin-1-yl-ethyl)-1H-imidazol-2-yl]-piperidin-1-yl}-7,8-dihydro-5H-pteridin-6-one]: more than 7.60 and 7.00 to 7.59.
For `Cc1ccc(-c2cn(CCN3CCCC3)c(C3CCN(c4ncnc5c4NC(=O)CN5)CC3)n2)cc1` [Compound A58, 4-{4-[4-(4-MethylPhenyl)-1-(2-pyrrolidin-1-yl-ethyl)-1H-imidazol-2-yl]-piperidin-1-yl}-7,8-dihydro-5H-pteridin-6-one], the pIC50 in experiment [1] and in experiment [2] was less than 6.00 throughout.
On to `CN(C)CCn1cc(-c2ccc(F)c(F)c2)nc1C1CCN(c2ncnc3c2NC(=O)CN3)CC1` [Compound A46, 4-{4-[4-(3,4-DifluoroPhenyl)-1-(2-dimethylamin-1-yl-ethyl)-1H-imidazol-2-yl]-piperidin-1-yl}-7,8-dihydro-5H-pteridin-6-one], for which the figures for the pIC50 in experiment [1] and in experiment [2] were 6.30 to 7.00 and 7.00 to 7.59, respectively.
Regarding `COc1cc(-c2cn(CCN(C)C)c(C3CCN(c4ncnc5c4OCCN5)CC3)n2)ccc1F` [Compound A8, {2-[2-[1-(7,8-Dihydro-6H-pyrimido[5,4-b][1,4]oxazin-4-yl)-piperidin-4-yl]-4-(4-fluoro-3-methoxy-phenyl)-imidazol-1-yl]-ethyl}-dimethylamine], the pIC50 in experiment [1] and in experiment [2] was more than 7.60 each time.
Consider `Fc1ccc(-c2cn(CCN3CCC3)c(C3CCN(c4ncnc5c4CCC5)CC3)n2)cc1Cl` [Compound A19, 4-{4-[1-(2-Azetidin-1-yl-ethyl)-4-(3-chloro-4-fluoro-phenyl)-1H-imidazol-2-yl]-piperidin-1-yl}-6,7-dihydro-5H-cyclopentapyrimidine], for which the pIC50 in experiment [1] and in experiment [2] was more than 7.60 in each case.
For the compound `Cc1cc(-c2cn(CCN(C)C)c(C3CCN(c4ncnc5c4CCN5)CC3)n2)ccc1F` [Compound A24, {2-[2-[1-(6,7-Dihydro-5H-pyrrolo[2,3-d]pyrimidin-4-yl)-piperidin-4-yl]-4-(4-fluoro-3-methyl-phenyl)-imidazol-1-yl]-ethyl}-dimethylamine], the pIC50 in experiment [1] and in experiment [2] was more than 7.60 in each case.
For the compound `CN(C)CCn1cc(-c2ccc(F)c(C(F)(F)F)c2)nc1C1CCN(c2ncnc3c2CCCN3)CC1` [Compound A32, (2-{4-(4-Fluoro-3-trifluoromethyl-phenyl)-2-[1-(5,6,7,8-tetrahydro-pyrido[2,3-d]pyrimidin-4-yl)-piperidin-4-yl]-imidazol-1-yl}-ethyl)-dimethylamine], the pIC50 in experiment [1] and in experiment [2] was more than 7.60 each time.
Take `CN(C)CCn1cc(-c2ccc(F)c(C(F)(F)F)c2)nc1C1CCN(c2ccnc3c2CCCN3)CC1` [Compound A5, 2-(4-(4-fluoro-3-(trifluoromethyl)phenyl)-2-(1-(5,6,7,8-tetrahydro-1,8-naphthyridin-4-yl)piperidin-4-yl)-1H-imidazol-1-yl)-N,N-dimethylethanamine]: the results for the pIC50 in experiment [1] and in experiment [2] were 7.00 to 7.59 and more than 7.60, respectively.
The matching figures for `Fc1ccc(-c2cn(CCN3CCC3)c(C3CCN(c4ncnc5c4OCCN5)CC3)n2)cc1C(F)(F)F` [Compound A1, 4-(4-(1-(2-(azetidin-1-yl)ethyl)-4-(4-fluoro-3-(trifluoromethyl)phenyl)-1H-imidazol-2-yl)piperidin-1-yl)-7,8-dihydro-6H-pyrimido[5,4-b][1,4]oxazine]: more than 7.60 and more than 7.60.
`CN(C)CCn1cc(-c2cccnc2)nc1C1CCN(c2ncnc3c2NC(=O)CN3)CC1` [Compound A48, 4-{4-[4-(Pyridin-3-yl)-1-(2-dimethylamin-1-yl-ethyl)-1H-imidazol-2-yl]-piperidin-1-yl}-7,8-dihydro-5H-pteridin-6-one]: the pIC50 in experiment [1] and in experiment [2] was less than 6.00 each time.
For `Cc1ccc(-c2cn(CCN(C)C)c(C3CCN(c4ncnc5c4NC(=O)CN5)CC3)n2)cc1` [Compound A49, 4-{4-[4-(4-MethylPhenyl)-1-(2-dimethylamin-1-yl-ethyl)-1H-imidazol-2-yl]-piperidin-1-yl}-7,8-dihydro-5H-pteridin-6-one], the negative-log IC50 (pIC50) is less than 6.00 in experiment [1] and 6.30 to 7.00 in experiment [2].
